Literature values, collected in patent publication US8884020B2, “Indole compounds” (Ironwood Pharmaceuticals, Inc., priority 2006, dated 2014).

Tested on: prostaglandin synthesis
Details: Shen et al. 1977

SMILES: Cc1c(CC(=O)O)c2cc(O)ccc2n1C(=O)c1ccc(Cl)cc1 [desmethyl metabolite, (1-(4-chlorobenzoyl)-5-hydroxy-2-methyl-1H-indol-3-yl]acetic acid]
- ability to inhibit prostaglandin synthesis: some ability to inhibit prostaglandin synthesis
